Measured values taken from ChEMBL document CHEMBL1155492, “Evaluation of thieno[3,2-b]pyrrole[3,2-d]pyridazinones as activators of the tumor cell specific M2 isoform of pyruvate kinase” (Bioorg Med Chem Lett, 2010).
Calls of active or inactive are those of the source. The calls are words filed in the database; no cut-off is given here.

How the values were obtained:
[1] = molecular target: Pyruvate kinase PKM (Homo sapiens) (UniProt P14618); assay: Maximum activation of human PKM2 assessed as ATP product formation at 57 uM after 1 hr by luminescent pyruvate kinase-luciferase coupled assay relative to fructose-1,6-bis-phosphate
[2] = molecular target: Pyruvate kinase PKM (Homo sapiens) (UniProt P14618); assay: Activation of PKM1 assessed as pyruvate formation by fluorescent pyruvate kinase-lactate dehydrogenase coupled assay
[3] = molecular target: Pyruvate kinase PKM (Homo sapiens) (UniProt P14618); assay: Activation of PKM1 assessed as ATP product formation by luminescent pyruvate kinase-luciferase coupled assay
[4] = test system: O=P(O)(O)OC[C@H]1O[C@@](O)(COP(=O)(O)O)[C@@H](O)[C@@H]1O; assay: Activation of human PKM2 assessed as reduction of Km for phosphoenolpyruvate
[5] = test system: O=P(O)(O)OC[C@H]1O[C@@](O)(COP(=O)(O)O)[C@@H](O)[C@@H]1O; assay: Activation of human PKM2 assessed as effect on Km for ADP

Pyruvate kinase PKM (Homo sapiens), sequence (P14618 2-531 limits assumed): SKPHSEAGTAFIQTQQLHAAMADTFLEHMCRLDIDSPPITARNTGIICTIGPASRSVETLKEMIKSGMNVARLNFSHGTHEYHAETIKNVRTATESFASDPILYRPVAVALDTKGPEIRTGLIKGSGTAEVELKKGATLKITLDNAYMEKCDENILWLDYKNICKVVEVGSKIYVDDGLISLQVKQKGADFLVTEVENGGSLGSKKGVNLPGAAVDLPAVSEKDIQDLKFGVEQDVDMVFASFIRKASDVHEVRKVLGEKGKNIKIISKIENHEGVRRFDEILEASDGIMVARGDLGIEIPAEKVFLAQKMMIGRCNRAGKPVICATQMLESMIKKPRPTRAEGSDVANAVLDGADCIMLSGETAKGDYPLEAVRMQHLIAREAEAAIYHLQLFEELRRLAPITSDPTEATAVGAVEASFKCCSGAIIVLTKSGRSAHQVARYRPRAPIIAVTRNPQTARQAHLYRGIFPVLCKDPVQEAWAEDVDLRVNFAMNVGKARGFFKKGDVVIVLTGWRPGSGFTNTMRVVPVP
Pyruvate kinase PKM (Homo sapiens), P14618, sequence (P14618 whole entry): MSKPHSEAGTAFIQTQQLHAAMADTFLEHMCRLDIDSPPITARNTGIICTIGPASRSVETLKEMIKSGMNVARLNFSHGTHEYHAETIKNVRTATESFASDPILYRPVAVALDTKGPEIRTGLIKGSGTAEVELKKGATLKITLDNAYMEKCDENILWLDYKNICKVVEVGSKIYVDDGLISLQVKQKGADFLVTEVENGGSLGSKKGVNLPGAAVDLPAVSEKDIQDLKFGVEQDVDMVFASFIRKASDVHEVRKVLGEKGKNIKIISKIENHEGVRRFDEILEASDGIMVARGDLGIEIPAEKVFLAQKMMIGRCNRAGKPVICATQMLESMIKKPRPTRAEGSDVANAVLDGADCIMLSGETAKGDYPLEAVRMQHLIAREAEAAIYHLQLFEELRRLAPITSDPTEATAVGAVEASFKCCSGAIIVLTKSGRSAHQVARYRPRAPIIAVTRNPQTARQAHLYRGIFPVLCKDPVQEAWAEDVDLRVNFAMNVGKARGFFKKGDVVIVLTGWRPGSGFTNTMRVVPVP

Row | Compound | Activity [1] | Activity [2] | Activity [3] | Km [4] | Km [5]
1 | Cn1c2cc(C=O)sc2c2cnn(Cc3ccccc3F)c(=O)c21 | 100% | inactive | inactive |  | 
2 | CC(=O)Nc1cc2c(s1)c1cnn(Cc3ccccc3F)c(=O)c1n2C | 59% | inactive | inactive |  | 
3 | COc1ccc(Cn2ncc3c4sc(C)cc4n(C)c3c2=O)cc1F | 68% | inactive | inactive |  | 
4 | Pyruvate kinase PKM (Homo sapiens), P14618 |  |  |  | 100 µM | 100 µM
5 | Cc1cc2c(s1)c1cnn(Cc3c(F)cccc3Cl)c(=O)c1n2C | 93% | inactive | inactive |  | 
6 | CSc1cc2c(s1)c1cnn(Cc3ccccc3F)c(=O)c1n2C | 96% | inactive | inactive |  | 
7 | CC(=O)c1cc2c(s1)c1cnn(Cc3ccccc3F)c(=O)c1n2C | 108% | inactive | inactive |  | 
8 | Cc1ccc(Cn2ncc3c4sc(C)cc4n(C)c3c2=O)cc1 | 84% | inactive | inactive |  | 
9 | Cc1cc2c(s1)c1cnn(Cc3ccc(F)c(F)c3F)c(=O)c1n2C | 69% | inactive | inactive |  | 
10 | Cc1cc2c(s1)c1cnn(Cc3ccc(F)cc3F)c(=O)c1n2C |  | inactive | inactive |  | 
11 | COc1ccc(Cn2ncc3c4sc(C)cc4n(C)c3c2=O)cc1 | 96% | inactive | inactive |  | 
12 | Cc1cc2c(s1)c1cnn(Cc3c(F)cccc3F)c(=O)c1n2C | 94% | inactive | inactive |  | 
13 | Cn1c2ccsc2c2ncn(Cc3ccccc3F)c(=O)c21 | 61% | inactive | inactive |  | 
14 | COC(=O)c1cc2c(s1)c1cnn(Cc3ccccc3F)c(=O)c1n2C | 70% | inactive | inactive |  | 
15 | Cc1cc2c(s1)c1cnn(Cc3ccc(Cl)cc3)c(=O)c1n2C | 91% | inactive | inactive |  | 
16 | Cc1ccc(Cn2ncc3c4sc(C)cc4n(C)c3c2=O)c(F)c1 | 81% | inactive | inactive |  | 
17 | COc1cc2c(s1)c1cnn(Cc3ccccc3F)c(=O)c1n2C |  | inactive | inactive |  | 
18 | Cn1c2cc([N+](=O)[O-])sc2c2cnn(Cc3ccccc3F)c(=O)c21 |  | inactive | inactive |  | 
19 | Cc1cc2c(s1)c1cnn(Cc3ccc(F)cc3)c(=O)c1n2C | 102% | inactive | inactive |  | 
20 | Cc1cc2c(s1)c1cnn(Cc3ccc(C(F)(F)F)cc3)c(=O)c1n2C | 56% | inactive | inactive |  | 
21 | Cc1cc2c(s1)c1cnn(Cc3ccccc3Cl)c(=O)c1n2C | 96% | inactive | inactive |  | 
22 | Cc1cc2c(s1)c1cnn(Cc3cccc(C)c3F)c(=O)c1n2C | 97% | inactive | inactive |  | 
23 | Cc1cc2[nH]c3c(=O)n(Cc4ccccc4F)ncc3c2s1 | inactive | inactive | inactive |  | 

Row | Compound | Activity [1] | Activity [2] | Activity [3] | Km [4] | Km [5]
24 | Cc1cc2c(s1)c1cnn(-c3ccccc3)c(=O)c1n2C | inactive | inactive | inactive |  | 
25 | Cc1cc2c(s1)c1c(C)nn(Cc3ccccc3F)c(=O)c1n2C | 56% | inactive | inactive |  | 
26 | Cn1c2cc([S+](C)[O-])sc2c2cnn(Cc3ccccc3F)c(=O)c21 (stereo not drawn) | 98% | inactive | inactive |  | 
27 | COc1cccc(Cn2ncc3c4sc([S+](C)[O-])cc4n(C)c3c2=O)c1 (stereo not drawn) | 99% | inactive | inactive |  | 
28 | CC(C)c1cc2c(s1)c1cnn(Cc3ccccc3F)c(=O)c1n2C | 106% | inactive | inactive |  | 
29 | Cn1c2cc([S+](C)[O-])sc2c2cnn(Cc3cccc(O)c3)c(=O)c21 (stereo not drawn) | 102% | inactive | inactive |  | 
30 | Cn1c2cc(C#N)sc2c2cnn(Cc3ccccc3F)c(=O)c21 | 84% | inactive | inactive |  | 
31 | Cc1cc2c(s1)c1cnn(Cc3ccccc3)c(=O)c1n2C |  | inactive | inactive |  | 
32 | Cc1cc2c(s1)c1cnn(Cc3ccc(C(F)(F)F)cc3F)c(=O)c1n2C | 59% | inactive | inactive |  | 
33 | Cn1c2cc(CO)sc2c2cnn(Cc3ccccc3F)c(=O)c21 | 103% | inactive | inactive |  | 
34 | Cn1c2cc(B(O)O)sc2c2cnn(Cc3ccccc3F)c(=O)c21 | 101% | inactive | inactive |  | 
35 | Cc1cc2c(s1)c1cnn(Cc3ccccc3F)c(=O)c1n2C(C)C | inactive | inactive | inactive |  | 
36 | Cn1c2ccsc2c2cnn(Cc3ccccc3F)c(=O)c21 | 93% | inactive | inactive |  | 
37 | Cc1cc2c(s1)c1cnn(Cc3cccc(Cl)c3)c(=O)c1n2C | 99% | inactive | inactive |  | 
38 | CC(O)c1cc2c(s1)c1cnn(Cc3ccccc3F)c(=O)c1n2C (stereo not drawn) | 120% | inactive | inactive |  | 
39 | Cc1cc2c(s1)c1cnn(Cc3cccc(F)c3)c(=O)c1n2C | 92% | inactive | inactive |  | 
40 | Cc1cc2c(s1)c1cnn(Cc3ccccc3F)c(=O)c1n2C | 122% | inactive | inactive |  | 
41 | CCc1cc2c(s1)c1cnn(Cc3ccccc3F)c(=O)c1n2C | 105% | inactive | inactive |  | 
42 | Cn1c2cc(S(C)(=O)=O)sc2c2cnn(Cc3ccccc3F)c(=O)c21 | inactive | inactive | inactive |  | 
43 | CCn1c2cc(C)sc2c2cnn(Cc3ccccc3F)c(=O)c21 | 96% | inactive | inactive |  | 
44 | CCCCCn1ncc2c3sc(C)cc3n(C)c2c1=O | 47% | inactive | inactive |  | 
45 | Cc1cc2c(s1)c1cnn(Cc3c(F)c(F)cc(F)c3F)c(=O)c1n2C | 59% | inactive | inactive |  | 
46 | Cc1cc2c(s1)c1cnn(Cc3cccc(F)c3F)c(=O)c1n2C | 73% | inactive | inactive |  | 
